In US20260070945A1, “MACROCYCLIC IMMUNOMODULATORS” (Bristol-Myers Squibb Company, priority 2022, published 2026) one finds IC50 data, which are given here for 5 compounds.

Where a SMILES comes first, the peptide text is derived from it. Bridges are numbered along the chain shown (N, C = ends). [ ]: non-standard residue; d: D form. The star is where a group is joined. ξ: configuration not given here. Phe(4-COOH) = N[C@@H](Cc1ccc(C(=O)O)cc1)C(=O)O; Bip = N[C@@H](Cc1ccc(-c2ccccc2)cc1)C(=O)O; Phe(3-Me) = Cc1cccc(C[C@H](N)C(=O)O)c1; Cha = N[C@@H](CC1CCCCC1)C(=O)O; Cit = NC(=O)NCCC[C@H](N)C(=O)O; Ile(3ξ) = CCC(C)[C@H](N)C(=O)O; Thr(3ξ) = CC(O)[C@H](N)C(=O)O; Carboxymethyl = O=C(O)C*; NMeA = CN[C@@H](C)C(=O)O; Aun = NCCCCCCCCCCC(=O)O; Dab = NCC[C@H](N)C(=O)O; AEEA = NCCOCCOCC(=O)O

In the assay the target is T1, PD-1/PD-L1 interaction (PE-labeled human PD-L1-Ig binding to Jurkat cell line over-expressing human PD-1) (Homo sapiens, UniProt Q15116).
T1 construct: expressed in transfected cells; host or cells: Jurkat
T1 sequence (Q15116 25-288): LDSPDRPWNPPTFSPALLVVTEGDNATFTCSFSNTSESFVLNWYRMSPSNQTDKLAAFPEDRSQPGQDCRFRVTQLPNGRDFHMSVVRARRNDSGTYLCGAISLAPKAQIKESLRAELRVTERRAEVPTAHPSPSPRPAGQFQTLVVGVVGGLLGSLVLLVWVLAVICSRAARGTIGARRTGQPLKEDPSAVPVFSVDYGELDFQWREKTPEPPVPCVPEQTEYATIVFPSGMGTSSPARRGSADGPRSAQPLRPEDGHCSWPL
Nature of the assay: Jurkat-PD-1 Cell Binding High-Content Screening Assay (CBA). Particulars: Jurkat-hPD-1 cells, PE-labeled PD-L1-Ig 20 nM final; read-out: Jurkat HPD1 PDL1 IC50. Put shortly:
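Jurkat cells overexpressing human PD-1 (8×10^3/well, DMEM + 10% FCS) preincubated with compound 2 h at 37 °C, then PE-labelled human PD-L1-Ig (20 nM final) for 1 h. Cells fixed in paraformaldehyde with Hoechst 33342; bound PD-L1 quantified by high-content imaging.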
On to `CC(C)C[C@@H]1NC(=O)[C@H](Cc2c[nH]c3ccccc23)NC(=O)[C@H](CC(=O)O)NC(=O)[C@H](Cc2ccc(C(=O)O)cc2)NC(=O)[C@H](Cc2ccc(OCC(=O)O)cc2)NC(=O)CSC[C@@H](C(=O)NCCOCCOCC(=O)NCCCCCCCCCCC(=O)O)NC(=O)[C@H](C(C)O)NC(=O)[C@H](C(C)C)NC(=O)[C@H](CC2CCCCC2)NC(=O)[C@H](CCN)NC(=O)[C@@H](CC(C)C)NC(=O)[C@H](C)N(C)C(=O)[C@H](CCC(N)=O)NC(=O)[C@H](Cc2ccc(-c3ccccc3)cc2)NC1=O` (stereo partly drawn) [Example 2285] ({CH2CO}-Y(Carboxymethyl)[Phe(4-COOH)]DWL[Bip]Q[NMeA][dL][Dab][Cha]V[Thr(3ξ)]C[AEEA][Aun]-OH; thioether N-14), for which the IC50 came to 48.9 nM.

Take `Cc1cccc(C[C@@H]2NC(=O)[C@H](CC(=O)O)NC(=O)[C@H](Cc3ccc(C(=O)O)cc3)NC(=O)[C@H](Cc3ccc(OCC(=O)O)cc3)NC(=O)CSC[C@@H](C(=O)NCCOCCOCC(=O)NCCCCCCCCCCC(=O)O)NC(=O)[C@H](CCCNC(N)=O)NC(=O)[C@H](C(C)C)NC(=O)[C@H](CC3CCCCC3)NC(=O)[C@H](CCN)NC(=O)[C@@H](CC(C)C)NC(=O)[C@H](C)N(C)C(=O)[C@H](C(C)C)NC(=O)[C@H](Cc3ccc(-c4ccccc4)cc3)NC(=O)[C@H](CC(C)C)NC2=O)c1` [Example 2286] ({CH2CO}-Y(Carboxymethyl)[Phe(4-COOH)]D[Phe(3-Me)]L[Bip]V[NMeA][dL][Dab][Cha]V[Cit]C[AEEA][Aun]-OH; thioether N-14): the IC50 is 27.4 nM.

For the compound `CCC(C)[C@@H]1NC(=O)[C@H](Cc2ccc(-c3ccccc3)cc2)NC(=O)[C@H](C(C)C)NC(=O)[C@H](Cc2c[nH]c3ccccc23)NC(=O)[C@H](CC(=O)O)NC(=O)[C@H](Cc2ccc(OCC(=O)O)cc2)NC(=O)[C@H](Cc2ccc(OCC(=O)O)cc2)NC(=O)CSC[C@@H](C(=O)N[C@H](CC(N)=O)C(=O)NCCCCCCCCCCC(=O)O)NC(=O)[C@H](CCCNC(=N)N)NC(=O)[C@H](C(C)C)NC(=O)[C@H](CC2CCCCC2)NC(=O)[C@H](CCN)NC(=O)[C@@H](CC(C)C)NC(=O)[C@H](C)N(C)C1=O` (stereo partly drawn) [Example 2287] ({CH2CO}-Y(Carboxymethyl)Y(Carboxymethyl)DWV[Bip][Ile(3ξ)][NMeA][dL][Dab][Cha]VRC[dN][Aun]-OH; thioether N-14), the IC50 was 17.9 nM.

Take `CCC(C)[C@@H]1NC(=O)[C@H](Cc2ccc(-c3ccccc3)cc2)NC(=O)[C@H](C(C)C)NC(=O)[C@H](Cc2cccc(C)c2)NC(=O)[C@H](CC(=O)O)NC(=O)[C@H](Cc2ccc(OCC(=O)O)cc2)NC(=O)[C@H](CCCNC(=N)N)NC(=O)CSC[C@@H](C(=O)N[C@H](CC(N)=O)C(=O)NCCCCCCCCCCC(=O)O)NC(=O)[C@H](CCCNC(N)=O)NC(=O)[C@H](C(C)C)NC(=O)[C@H](CC2CCCCC2)NC(=O)[C@H](CCN)NC(=O)[C@@H](CC(C)C)NC(=O)[C@H](C)N(C)C1=O` (stereo partly drawn) [Example 2288] ({CH2CO}-RY(Carboxymethyl)D[Phe(3-Me)]V[Bip][Ile(3ξ)][NMeA][dL][Dab][Cha]V[Cit]C[dN][Aun]-OH; thioether N-14): the IC50 was determined as 12.9 nM.

For the compound `CC(=O)NCCCC[C@@H]1NC(=O)[C@H](Cc2ccc(-c3ccccc3)cc2)NC(=O)[C@H](C(C)C)NC(=O)[C@H](Cc2cccc(C)c2)NC(=O)[C@H](CC(=O)O)NC(=O)[C@H](Cc2ccc(OCC(=O)O)cc2)NC(=O)[C@H](CCCNC(=N)N)NC(=O)CSC[C@@H](C(=O)NCCOCCOCC(=O)NCCCCCCCCCCC(=O)O)NC(=O)[C@H](C(C)O)NC(=O)[C@H](C(C)C)NC(=O)[C@H](CC2CCCCC2)NC(=O)[C@H](CCN)NC(=O)[C@@H](CC(C)C)NC(=O)[C@H](C)N(C)C1=O` (stereo partly drawn) [Example 2289] ({CH2CO}-RY(Carboxymethyl)D[Phe(3-Me)]V[Bip]K(Ac)[NMeA][dL][Dab][Cha]V[Thr(3ξ)]C[AEEA][Aun]-OH; thioether N-14), the IC50 amounted to 7.5 nM.

By IC50 is commonly meant the point on the concentration scale where inhibition reaches its midpoint.
